Results taken from article PMC3016413, “An Antiretroviral/Zinc Combination Gel Provides 24 Hours of Complete Protection against Vaginal SHIV Infection in Macaques” (PLoS ONE, 2011).
Read-outs that look alike come from different tables or passages of the source.

How the values were obtained:
[1] = system: HIV-1 wild type; design: method as in Fernández-Romero unpublished; details: ref Fernández-Romero unpublished; read-out: IC50 against wild type; cited from earlier work
[2] = system: HIV-1 L100I/K103N double mutant; design: method as in Fernández-Romero unpublished; details: ref Fernández-Romero unpublished; read-out: IC50 against L100I/K103N double mutant; cited from earlier work
[3] = system: HIV-1 Y181C mutant; design: method as in Fernández-Romero unpublished; details: ref Fernández-Romero unpublished; read-out: IC50 against Y181C mutant; cited from earlier work
[4] = system: HIV-1; details: in vitro; ref Fernández-Romero unpublished; cited from earlier work
[5] = system: R5 and X4 viruses; design: method as in PMID 16924181, PMID 18776937, PMID 7545297; details: read-out: antiviral IC50; cited from earlier work
[6] = system: R5 and X4 viruses; design: method as in PMID 16924181, PMID 18776937, PMID 7545297; details: potentially virucidal; cited from earlier work
[7] = rat, in vivo; cited from earlier work
[8] = Vaginal pH and cytokines/chemokines in vaginal fluids after repeated gel; type: in vivo, Rhesus macaques (Macaca mulatta)
Procedure: PBMCs were isolated from EDTA blood using Ficoll-Hypaque density gradient centrifugation (Amersham Pharmacia Biotech, Uppsala, Sweden) as already described. RPMI 1640 (Invitrogen/GIBCO, Carlsbad, CA, USA) culture medium containing 2 mM L-glutamine (Invitrogen/GIBCO) 10 mM HEPES (N-2-hydroxyethylpiperazine-N'-2-ethanesulfonic acid) (Invitrogen/GIBCO), 50 µM 2-mercaptoethanol (Sigma) penicillin (100 U/ml) and streptomycin (100 µg/ml) (Invitrogen/GIBCO) and 1% heparinized human plasma (Innovative Research, Southfield, MI) was used for final re-suspension of PBMCs. Medium with 10% HI-FBS (heat inactivated fetal bovine serum) (Invitrogen/GIBCO) instead of 1% human plasma was used for the PBMC-174xCEM co-cultures. DNA was isolated from lymph nodes as described with the DNeasy® Blood & Tissue Kit (Qiagen Sciences, MD USA). […] Vaginal pH was determined by inserting pH-indicator strip (EMO Chemical Inc., Gibbstown, NJ) into the vaginal vault for 5 minutes to saturate the pH paper with vaginal fluid.
SIV-specific IFN-γ T cell responses were monitored by ELISPOT using AT-2 SIV (versus the no virus microvesicle controls) as the stimuli and SIV-specific antibodies by ELISA [36]. […] Cell-free vaginal fluids were analyzed for chemokine and cytokine expression using the monkey-reactive Beadlyte human 14-plex Detection System according to the manufacturer's instructions (Invitrogen). […]

[9] = design: method as in PMID 18086845; details: 8 h after daily treatment for 7 days with 273 µM TMC120; cited from earlier work

SMILES	IC50 [1]	IC50 [2]	IC50 [3]	memory effect: time exposed cells remain resistant to infection [4]	IC50 [5]	IC50 [6]	time to becoming undetectable in plasma (short plasma half-life) [7]	impact on vaginal pH ([8]; before, during and 8 or 24 h after 2 week gel administration)	impact on CXCL8 and CCL2 levels in vaginal fluids ([8]; relative to carrageenan, 2 week daily gel administration)	level of TMC120 associated with the cervical tissues [9]
O=C1Nc2ccc(Cl)cc2[C@@](C#CC2CC2)(C(F)(F)F)O1 [Efavirenz, reference compound]	0.6 nM	> 10000 nM								
CCC(=O)c1ccc(F)c([C@@H]2C[C@@H]2NC(=O)Nc2ccc(C#N)cn2)c1O [MIV-150]	0.7 nM	900 nM	0.2 nM	up to 5 d	< 1 nM	400 nM	≤ 24 h	no impact	no further impact	
Cc1cc(C)c(Nc2ccnc(Nc3ccc(C#N)cc3)n2)c(C)c1 [TMC120]										3 to 80 pg/mg
